Experimental data: patent US10874743B2, “IRAK degraders and uses thereof” (Kymera Therapeutics, Inc., priority 2017, dated 2020)

What was measured:
Assay type in all cases: cell-based
IRAK4 [1] = target: T1, IRAK4 (Homo sapiens, UniProt Q9NWZ3); test: THP-1 degradation assay (western blot, % IRAK4 degraded after 24 hours); set-up: endogenous in cells; conditions: THP-1 cells
T1 sequence (Q9NWZ3 1-460): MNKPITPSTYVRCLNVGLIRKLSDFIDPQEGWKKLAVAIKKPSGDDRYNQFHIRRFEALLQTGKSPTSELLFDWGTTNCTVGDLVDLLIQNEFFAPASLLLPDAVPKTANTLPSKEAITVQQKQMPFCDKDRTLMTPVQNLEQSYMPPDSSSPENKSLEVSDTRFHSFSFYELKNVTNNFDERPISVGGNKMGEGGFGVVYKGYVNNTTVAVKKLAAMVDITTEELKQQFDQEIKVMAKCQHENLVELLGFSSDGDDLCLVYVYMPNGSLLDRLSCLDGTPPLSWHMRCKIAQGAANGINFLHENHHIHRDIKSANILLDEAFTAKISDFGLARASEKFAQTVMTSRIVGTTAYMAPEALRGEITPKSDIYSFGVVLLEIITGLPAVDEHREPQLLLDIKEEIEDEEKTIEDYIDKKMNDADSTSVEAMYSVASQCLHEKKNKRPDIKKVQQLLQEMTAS
Method: Compounds were reconstituted in DMSO to make stock solutions at concentration of 60 mM. THP-1 and OCI-LY10 cells were maintained in RPMI-1640 medium containing 10% FBS, 0.5 μM 2-ME or 20% FBS, 55 μM 2-ME, and 1% L-Glutamine respectively.
Cells were seeded into 6-well plates with 5e6 cells per well. 200 μL of diluted compounds were added to cells to the final concentration of 0.003-10 μM. After 4 or 24 hour-incubation at 37° C., cells were collected into 2 mL Eppendorf tubes and centrifuged at 1,000 rpm for 5 min. The cell pellets were washed with 1×DPBS once and resuspended in 60 μL lysis buffer. The cells were lysed on ice for 10 min, then centrifuged at 14,000 rpm for 10 min at 4° C. and the supernatants were collected for western blots. For THP-1 cells, the lysis buffer contained 40 mM pH 7.4 HEPES, 140 mM NaCl, 2.5 mM EDTA, 1% NP-40, 0.1% SDS, and protease inhibitor cocktail (Roche, Cat. No. 05892791001). For OCI-LY10 cells, RIPAbuffer (Thermo Fisher, 89900) with Halt Protease and Phosphatase Inhibitor Cocktail (Thermo Fisher, 78446) was applied.
The protein concentration of cell lysates was quantified with Pierce™ BCA Protein Assay Kit (Pierce, 23227). Albumin standards at different concentrations were prepared, involving 2,000 ug/mL, 1,500 ug/mL, 1,000 ug/mL, 750 ug/mL, 500 ug/mL, 250 ug/mL, 125 ug/mL, and 25 ug/mL. BCA working reagents were prepared by mixing BCA reagent A with reagent B in 50:1 ratio. 200 μL of the BCA working reagents were added to 25 μL of BCA standard or cell lysates in microplate, and mixed thoroughly on a plate shaker for 30 seconds. After incubation at 37° C. for 30 min, the absorbance of samples at 562 nm were measured with EnVision Plate Reader.
Protein lysates were prepared in NuPAGE™ LDS sample buffer and NuPAGE™ sample reducing agent, and incubated at 95° C. for 5 min. For western blots, 20-25 μg of total proteins were resolved in 4-12% Bis-Tris gels (Introgen, WG1403A) or 10% Bis-Tris Midi gels (Invitrogen, WG1202BOX) running with 1×MOPS SDS running buffer (Invitrogen, NP0001) or 1×MES SDS running buffer (Invitrogen, NP0002). The proteins were transferred to low fluorescence PVDF membranes using the Trans-Blot Turbo Transfer System. Membranes were then blocked in Odyssey blocking buffer at RT for 1 h followed by primary incubation at 4° C. overnight. The primary antibodies were IRAK1 rabbit monoclonal antibody (CST, #4504S, 1:500), IRAK3 rabbit polyclonal antibody (CST, #4369, 1:500), IRAK4 rabbit polyclonal antibody (CST, #4363S, 1:1,000), MyD88 rabbit monoclonal antibody (Abcam, Ab133739, 1:2,000), j3-actin mouse monoclonal antibody (Sigma, A5441, 10,000), and Gapdh mouse monoclonal antibody (Millipore, MAB374, 1:5,000). Membranes were washed three times with 1×TBST, and then incubated with IR Dye 800 CW Goat anti-rabbit (Licor, #926-32211) and IR Dye 700 CW Goat anti-mouse (Licor, #926-68070) secondary antibodies in 1:10,000 dilution at RT for 1 h. The western blot images were obtained using Odyssey Imaging System.
THP-1 results at 24 hours. The letter codes indicate the percentage of IRAK4 degraded after 24 hours: A (>50% degradation), B (>20-50% degradation) and C (<20% degradation)

IRAK4 [2] = target: T1, IRAK4; test: OCI-LY-10 MSD assay for IRAK4 DC50; set-up: endogenous in cells; host or cells: OCI-LY10; conditions: OCI-LY10 cells, 4 hr incubation, concentration required to degrade 50% of protein
In short: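 IRAK4 level was quantified by MSD electrochemiluminescence (anti-IRAK4 capture antibody, rabbit anti-IRAK4 detection antibody) in RIPA lysates of OCI-Ly10 cells. Cells had been treated with compound for 4 hr (8-point, 3-fold serial dilution). Remaining protein versus concentration was fitted to a sigmoidal curve to give DC50.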

OCI-LY10 cells = test: OCI-LY-10 CTG cell viability assay (EC50); conditions: Homo sapiens, 96 h, CellTiter-Glo cell viability, 4 days incubation, top concentration 10 μM, read-out: OCI-LY10 IRAK4 EC50
In short: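 OCI-LY10 cells were exposed to a 9-dose, 1:3 series (top 10 μM, 0.2% DMSO) for 4 days at 37 °C. Viability was measured by CellTiter-Glo luminescence, and EC50 came from a three-parameter logistic fit.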

THP-1 24 h % IRAK4 Degradation (IRAK4 [1]) | DC50 (IRAK4 [2]) [nM] | EC50 (OCI-LY10 cells) [nM] | Structure (SMILES)
C (<20% degradation) | – | – | N#Cc1cnc(Nc2cc(NC3CC3)c(C(=O)NCC(F)COCCOCCOCCNc3cccc4c3C(=O)N(C3CCC(=O)NC3=O)C4=O)cn2)c(F)c1 (stereo not drawn) [I-58]
C (<20% degradation) | – | – | COc1cc(Nc2nc(N[C@H]3CCCC[C@H]3N)n3ccnc3c2C(N)=O)cc(OCCOCCOCCOCCOCCNc2cccc3c2C(=O)N(C2CCC(=O)NC2=O)C3=O)c1 (stereo partly drawn) [I-199]
C (<20% degradation) | – | – | COc1cc(Nc2nc(N[C@H]3CCCC[C@H]3N)n3ccnc3c2C(N)=O)cc(OC)c1OCCOCCOCCOCCOCC(=O)N[C@H](C(=O)N1C[C@H](O)C[C@H]1C(=O)NCc1ccc(-c2scnc2C)cc1)C(C)(C)C [I-164]
C (<20% degradation) | – | – | CN(CCOCCOCCNc1cccc2c1C(=O)N(C1CCC(=O)NC1=O)C2=O)C(=O)[C@H]1CC[C@H](NC(=O)c2cnc(Nc3ccc4cnccc4n3)cc2NC2CC2)CC1 (stereo partly drawn) [I-40, 6-((1,6-naphthyridin-2-yl)amino)-4-(cyclopropylamino)-N-((1R,4R)-4-((2-(2-(2-((2-(2,6-dioxopiperidin-3-yl)-1,3-dioxoisoindolin-4-yl)amino)ethoxy)ethoxy)ethyl)(methyl)carbamoyl)cyclohexyl)nicotinamide]
B (>20-50% degradation) | – | – | O=C1CCC(N2C(=O)c3cccc(NCCOCCNC(=O)[C@H]4CC[C@H](NC(=O)c5cnc(Nc6ccc7cnccc7n6)cc5NC5CC5)CC4)c3C2=O)C(=O)N1 (stereo partly drawn) [I-25, 6-((1,6-naphthyridin-2-yl)amino)-4-(cyclopropylamino)-N-((1r,4r)-4-((2-(2-((2-(2,6-dioxopiperidin-3-yl)-1,3-dioxoisoindolin-4-yl)amino)ethoxy)ethyl)carbamoyl)cyclohexyl)nicotinamide]
B (>20-50% degradation) | – | – | O=C(COc1cccc2c1C(=O)N(C1CCC(=O)NC1=O)C2=O)NCCOCCNC(=O)[C@H]1CC[C@H](NC(=O)c2cnc(Nc3ccc4cnccc4n3)cc2NC2CC2)CC1 (stereo partly drawn) [I-6]
B (>20-50% degradation) | – | – | Cc1ncsc1-c1ccc(CNC(=O)[C@@H]2C[C@@H](O)CN2C(=O)[C@@H](NC(=O)COCCOCCOCCOCCOCCOCC(F)CNC(=O)c2cnc(Nc3ccc4cnccc4n3)cc2NC2CC2)C(C)(C)C)cc1 (stereo partly drawn) [I-119]
C (<20% degradation) | – | – | O=C1CCC(N2C(=O)c3cccc(NCCOCCOCCOCCOCCOCCOCC(F)CNC(=O)c4cnc(Nc5ccc6cnccc6n5)cc4NC4CC4)c3C2=O)C(=O)N1 (stereo not drawn) [I-51]
C (<20% degradation) | – | – | Cc1ncsc1-c1ccc(CNC(=O)C2C[C@@H](O)CN2C(=O)[C@@H](NC(=O)COCCOCCOC(C)C(F)CNC(=O)c2cnc(-n3ncc4cc(C#N)cnc43)cc2NC2CC2)C(C)(C)C)cc1 (stereo partly drawn) [I-122]
B (>20-50% degradation) | – | – | O=C1CCC(N2C(=O)c3cccc(NCCOCCOCCOCCOCC(F)CNC(=O)c4cnc(Nc5ccc6cnccc6n5)cc4NC4CC4)c3C2=O)C(=O)N1 (stereo not drawn) [I-50]
– | < 50 | 500 to 1000 | NC(=O)c1nn(-c2ccc(CNCCCOCCCc3ccc4c(c3)oc(=O)n4C3CCC(=O)NC3=O)cc2)cc1NC(=O)c1coc(-c2ccnc(NCC(F)(F)F)c2)n1 (stereo not drawn) [I-567]
– | < 50 | < 50 | Cn1c(=O)n(C2CCC(=O)NC2=O)c2ccc(CN3CCN(CCO[C@H]4C[C@H](NC(=O)c5ccc(-n6cc(NC(=O)c7coc(-c8ccnc(NCC9CC9)c8)n7)c(C(F)F)n6)cc5)C4)CC3)cc21 (stereo partly drawn) [I-506]
– | < 50 | 500 to 1000 | Cn1c(=O)n(C2CCC(=O)NC2=O)c2ccc(CCCOCCNCc3ccc(-n4cc(NC(=O)c5coc(-c6ccnc(NCC(F)(F)F)c6)n5)c(C(F)F)n4)cc3)cc21 (stereo not drawn) [I-532]
– | < 50 | < 50 | Cn1c(=O)n(C2CCC(=O)NC2=O)c2ccc(CCCOCCOCCNC(=O)c3ccc(-n4cc(NC(=O)c5coc(-c6ccnc(NCC7CC7)c6)n5)c(C(F)F)n4)cc3F)cc21 (stereo not drawn) [I-470]
– | > 1000 | > 1000 | CN(CCOCCOCCOCCNc1cccc2c1C(=O)N(C1CCC(=O)NC1=O)C2=O)C(=O)c1nn(C)cc1NC(=O)c1coc(-c2ccnc(NCC(F)(F)F)c2)n1 (stereo not drawn) [I-456]
– | < 50 | < 50 | CN(C[C@H]1CN(CCCc2ccc3c(c2)n(C)c(=O)n3C2CCC(=O)NC2=O)CCO1)C(=O)c1ccc(-n2cc(NC(=O)c3coc(-c4ccnc(NCC5CC5)c4)n3)c(C(F)F)n2)cc1 (stereo partly drawn) [I-490]
– | 50 to 100 | < 50 | O=C1CCC(N2C[C@H](c3ccc(C#CCCOCCCNCc4ccc(-n5cc(NC(=O)c6coc(-c7ccnc(NCC8CC8)c7)n6)c(C(F)F)n5)cc4)cc3)OC2=O)C(=O)N1 (stereo partly drawn) [I-580]
– | < 50 | > 1000 | Cn1c(=O)n([C@H]2CCC(=O)NC2=O)c2cccc(CCCOCCOCCNCc3ccc(-n4cc(NC(=O)c5coc(-c6ccnc(NCC(F)(F)F)c6)n5)c(C(N)=O)n4)cc3)c21 [I-690, N-[3-carbamoyl-1-[4-[[2-[2-[3-[(1S)-1-(2,6-dioxo-3-piperidyl)-3-methyl-2-oxo-benzimidazol-4-yl]propoxy]ethoxy]ethylamino]methyl]phenyl]pyrazol-4-yl]-2-[2-(2,2,2-trifluoroethylamino)-4-pyridyl]oxazole-4-carboxamide]
– | > 1000 | 500 to 1000 | CN1CCN(C(=O)c2nn(-c3ccc(CNCCCCOCCCCc4ccc5c(c4)n(C)c(=O)n5C4CCC(=O)NC4=O)cc3)cc2NC(=O)c2coc(-c3ccnc(NCC(F)(F)F)c3)n2)CC1 (stereo not drawn) [I-559]

Structure (SMILES) | THP-1 24 h % IRAK4 Degradation (IRAK4 [1]) | DC50 (IRAK4 [2]) [nM] | EC50 (OCI-LY10 cells) [nM]
CN[C@@H](C)C(=O)N[C@H](C(=O)N1Cc2cc(OCCOCCOCCOCCOCCOCCNCc3ccc(-n4cc(NC(=O)c5coc(-c6ccnc(NCC7CC7)c6)n5)c(C(F)F)n4)cc3)ccc2C[C@H]1C(=O)N[C@@H]1CCCc2ccccc21)C(C)(C)C [I-680, 2-[2-(Cyclopropylmethylamino)-4-pyridyl]-N-[3-(difluoromethyl)-1-[4-[[2-[2-[2-[2-[2-[2-[[(3S)-2-[(2S)-3,3-dimethyl-2-[[(2S)-2-(methylamino)propanoyl]amino]butanoyl]-3-[[(1R)-tetralin-1-yl]carbamoyl]-3,4-dihydro-1H-isoquinolin-7-yl]oxy]ethoxy]ethoxy]ethoxy]ethoxy]ethoxy]ethylamino]methyl]-phenyl]pyrazol-4-yl]oxazole-4-carboxamide] | – | > 1000 | > 1000
